Reference: patent publication US7544377B2, “Chewable compositions with fast release magnolia bark extract” (GIC Innovations Company, priority 2005, dated 2009)

Columns and labels:
[1] = system: bacteria from freshly-collected simulated whole saliva (biofilm); assay: Mixed culture saliva biofilm on saliva-coated hydroxyapatite discs, timed exposure to actives; format: cell-based; details: for % OD reduction (600 nm): Table 8
Procedure: Although useful to show the comparative effect of Magnolia Bark Extract on biofilm formation and MIC growth, the foregoing test procedure may not effectively mimic the in vivo exposure of an oral care product to a developing plaque biofilm. In an in vivo situation, the active could be exposed to the plaque for a defined period of time at a set frequency (for example, for 5 minutes, three times a day). Therefore, a series of comparative experiments were conducted to mimic the in vivo use of potential active ingredients. To perform the tests the saliva compositions listed below in Tables 2 and 3 were prepared.
A mixed culture system that utilizes the bacteria from freshly-collected simulated whole saliva was used. Saliva cell pellets were used to inoculate saliva-coated hydroxyapatite (S-HA) discs. The discs were placed in 24-well cell culture plates and incubated for up to 3 days. Biofilms were exposed to actives on days 2 and 3 (starting at 18 hours), and quantified on day 4. The number of bacteria was determined by spectrophotometric absorbance or optical density (OD) at 600 nm. The five phases of the experiment were: pellicle formation; bacterial attachment; biofilm growth; exposure to actives; and bacterial enumeration.
To form the pellicles, HA Discs were ultrasonically washed in deionized water and air-dried, then autoclaved. The discs were placed in a 24-well plate with 1 ml 50% sterile saliva (1 part sterile whole saliva: 1 part saliva buffer, filter sterilize after preparation) for 2 hours on slow agitation at room temperature. The saliva was suctioned and then the discs were transferred to fresh wells for bacterial attachment.
To form the biofilms, the bacterial suspension was removed, and the discs were transferred to fresh wells. One ml of supplemented saliva medium was added and the plate was placed in the incubator for overnight incubation and for the duration of the experiment (up to 72 hours).
A stock solution of 1% Magnolia Bark Extract in 60% ethanol was prepared. Magnolia Bark Extract samples were prepared having a concentration range of 125, 250, 500, and 1000 μg/ml (ppm) in a Phosphate-Buffered-Saline (PBS) solution, where the negative control was PBS and the positive control was CHX having a concentration of 0.12%.
One-ml quantities of active ingredients and controls were placed into fresh wells, and the discs were transferred to these wells for 5 minutes. The chlorhexidine control exposure was one minute, two times a day to mimic the standard mouth-rinse procedure. The exposure to active ingredient was carried out at 8:00 AM, 12:00 and 4:00 PM. After the timed exposure, the solution was removed and the discs washed twice with PBS and then transferred to fresh medium. For some experiments, the medium used during the day was TSB (Tryptic Soy Broth) with a 50 μl 40% sterile sucrose solution added to each well (to give a 2% sucrose solution). The medium was not replaced after the mid-day exposure.
After overnight incubation (day 2), discs were exposed to controls and actives. On day 3 the biofilms were again exposed to tests and controls. On day 4 the discs were removed from the medium, the medium pH was measured to obtain an indication of metabolic activity, and the discs were placed into tubes with 2.5 ml PBS, vortexed for 20 sec, and then placed into the ultrasonic bath for another 20 sec. The suspension was transferred into cuvettes and the bacterial cell density determined by OD measurements at 600 nm.
To evaluate the effect of Magnolia Bark Extract in combination with the surface active agent, sodium lauryl sulfate, five active ingredient solutions were prepared using the procedures described above. […] Also, the MBE solutions were prepared to have a concentration of 500 ppm. Sodium lauryl sulfate was added to two of the Magnolia Bark Extract solutions to obtain SLS concentrations of 0.05% and 0.1% in the Magnolia Bark Extract solutions. […]

incubated saliva = assay: MIC of surface active agents and emulsifiers, two-fold broth dilution; format: cell-based; details: 24 hours at 37° C., lowest dilution not turbid
Procedure: (§1) To evaluate the germ-kill efficacy and synergist effect when two or more germ-kill actives are combined, testing was performed to determine the ratio of MBE to surface active agent. The germ-kill active and/or surface active agent were dissolved in ethanol or sterile water to give an initial concentration 0.1% to 1%. The solution was diluted with a nutrient broth to give an initial concentration of 0.05% to 0.5%, which was then serially diluted two-fold so that each subsequent dilution contained 50% of the compound concentration of the previous dilution while maintaining a constant level of nutrients for each dilution. These dilutions were inoculated with representative oral microorganisms, or incubated saliva, and incubated for 24 hours at 37° C. For each surface active agent, the lowest dilution that was not turbid was registered as the MIC. The MBC was determined by transferring 10 microliter of liquid from non-turbid tubes to fresh growth media and incubated for 48 hours.

S. mutans = assay: MIC and fractional inhibitory index of MBE / surface active agent combinations; format: cell-based, Streptococcus mutans; details: 24 hours at 37° C.
Procedure: as §1
(1) where an FIC value of less than 1.0 is synergistic, an FIC between 1.0 and 2.0 is additive, and an FIC greater than 2.0 is antagonistic.

[H]/N=C(\N/C(=N/[H])NCCCCCCNC(=N)NC(=N)Nc1ccc(Cl)cc1)Nc1ccc(Cl)cc1 [CHX, chlorhexidine]
pH (medium pH, indication of metabolic activity) ([1]; Table 5, CHX 0.12%, exposure one minute, two times a day): 8.8 | % OD reduction (600 nm, compared to PBS control) ([1]; Table 6, CHX 0.12%, exposure one minute, two times a day): 84% | pH (medium pH, indication of metabolic activity) ([1]; Table 7, CHX 0.1% (1000 ppm)): 8.8 | % OD reduction (600 nm) ([1]; CHX 0.1% (1000 ppm)): 94%

Sucrose Stearate
MIC (ppm) (incubated saliva): >500 ppm

Sodium Brasslate
MIC (ppm) (incubated saliva): 500 ppm

N=C(NCCCCCCNC(=N)NC(=N)Nc1ccc(Cl)cc1)NC(=N)Nc1ccc(Cl)cc1.O=C(O)[C@H](O)[C@@H](O)[C@H](O)[C@H](O)CO.O=C(O)[C@H](O)[C@@H](O)[C@H](O)[C@H](O)CO [Chlorhexidine gluconate]
MIC (ppm) (incubated saliva): 2 ppm | MIC/ppm (S. mutans): 2 ppm

CCCCCCCCCCCCOS(=O)(=O)[O-].[Na+] [SLS, sodium lauryl sulfate]
pH (medium pH, indication of metabolic activity) ([1]; Table 7, SLS 1000 ppm): 5.7 | % OD reduction (600 nm) ([1]; SLS 1000 ppm): 61%

Sodium Stearoyl Lactylate
MIC (ppm) (incubated saliva): >3000 ppm

Sucrose Distearate
MIC (ppm) (incubated saliva): >500 ppm
